Eleven compounds from patent US8906925B2, “Pyrido[4,3-B]indoles containing rigid moieties” (Medivation Technologies, Inc., priority 2008, dated 2014) can be followed below.

One assay concerns the target histamine receptor H1 (Homo sapiens, UniProt P35367). The experiment in a line: Histamine H1 radioligand binding ([3H]Pyrilamine). Particulars: for inhibition at 1 µM: read-out: Histamine Binding (1 μM) H1, percent inhibition of specific binding, 1 μM. The method, boiled down: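 Values are percent inhibition of specific [3H]pyrilamine (1.2 nM) binding with compounds at ≤1 μM (1% DMSO vehicle); 180 min incubation at 25 °C, pH 7.4 Tris buffer, on CHO-expressed human H1 receptor; 1 μM pyrilamine defined nonspecific binding, bound ligand counted after filtration.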

Assay [1] addresses T1, human recombinant histamine H2 receptor (Homo sapiens, UniProt P25021).
T1 construct: expressed in transfected cells; host or cells: Chinese hamster ovary (CHO) K1 cells
The experiment in a line: Histamine H2 radioligand binding ([125I]Aminopotentidine). Particulars: read-out: Histamine Binding (1 μM) H2, percent inhibition of specific binding, 1 μM. The procedure:
To evaluate in radioligand binding assays the activity of compounds of the invention, human recombinant histamine H2 receptor expressed in Chinese hamster ovary (CHO) K1 cells (Ruat, M., Proc. Natl. Acad. Sci. USA. 87(5):1658, 1990) in a 50 mM Phosphate buffer, pH 7.4 was used. Compounds of the invention were incubated with 0.1 nM [^125I]Aminopotentidine for 120 min. at 25° C. Non-specific binding was estimated in the presence of 3 μM Tiotidine. Receptor proteins were filtered and washed, the filters were then counted to determine [^125I]Aminopotentidine specifically bound.

In assay [2] the target is human dopamine D2L receptor (Homo sapiens, UniProt P14416). The experiment in a line: Dopamine D2L radioligand binding ([3H]Spiperone). Particulars: percent inhibition of specific binding, compound at 1 μM; for inhibition at 1 µM: read-out: Inhibition of ligand binding, Dopamine D2L. The source says: Non-specific binding was estimated in the presence of […] Haloperidol. Receptor proteins were filtered and washed, the filters were then counted to determine [^3H]Spiperone specifically bound. […] Biochemical assay results are presented as the percent inhibition of specific binding in Table 9.

For assay [3], the target named is T2, human recombinant serotonin (5-Hydroxytryptamine) 5-HT2A receptor (Homo sapiens, UniProt P28223).
T2 construct: expressed in transfected cells; host or cells: Chinese hamster ovary (CHO-K1) cells
The experiment in a line: Serotonin 5-HT2A radioligand binding ([3H]Ketanserin). Particulars: for inhibition at 1 µM: read-out: Inhibition of ligand binding, Serotonin 5-HT2A (percent inhibition of specific binding), compound at 1 μM. The procedure: Compounds of the invention were incubated with 0.5 nM [^3H]Ketanserin for 60 min. at 25° C. Non-specific binding was estimated in the presence of 1 μM Mianserin. Receptor proteins were filtered and washed, the filters were then counted to determine [^3H]Ketanserin specifically bound.

Assay [4] concerns the target T3, human recombinant serotonin (5-Hydroxytryptamine) 5-HT2C receptor (Homo sapiens, UniProt P28335).
T3 construct: expressed in transfected cells; host or cells: Chinese hamster ovary (CHO-K1) cells
T3 sequence (P28335 33-458): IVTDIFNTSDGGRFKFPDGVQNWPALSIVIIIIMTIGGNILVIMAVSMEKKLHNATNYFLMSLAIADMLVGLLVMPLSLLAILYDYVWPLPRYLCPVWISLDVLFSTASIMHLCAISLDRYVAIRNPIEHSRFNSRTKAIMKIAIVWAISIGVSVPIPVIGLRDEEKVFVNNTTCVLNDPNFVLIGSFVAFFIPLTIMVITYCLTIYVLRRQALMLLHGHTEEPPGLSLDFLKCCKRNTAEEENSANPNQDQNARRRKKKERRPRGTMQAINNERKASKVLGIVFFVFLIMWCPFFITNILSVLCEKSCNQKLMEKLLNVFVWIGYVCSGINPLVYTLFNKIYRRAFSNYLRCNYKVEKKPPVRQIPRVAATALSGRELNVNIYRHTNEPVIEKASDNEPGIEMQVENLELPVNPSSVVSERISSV
Briefly: Serotonin 5-HT2C radioligand binding ([3H]Mesulergine). To be noted: read-out: Inhibition of ligand binding, Serotonin 5-HT2C (percent inhibition of specific binding); for inhibition at 1 µM: compound at 1 μM. The method, boiled down:
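Compounds tested at 1 μM or lower (1% DMSO vehicle) for displacement of 1 nM [3H]Mesulergine over 60 min at 25° C. Specific binding determined by filtration counting, with 1 μM Mianserin defining non-specific binding; values are percent inhibition.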

In assay [5] the target is T4, human recombinant serotonin (5-Hydroxytryptamine) 5-HT6 receptor (Homo sapiens, UniProt P50406).
T4 construct: expressed in transfected cells; host or cells: human HeLa cells
The experiment in a line: Serotonin 5-HT6 radioligand binding ([3H]LSD). To be noted: read-out: Inhibition of ligand binding, Serotonin 5-HT6 (percent inhibition of specific binding); for inhibition at 1 µM: compound at 1 μM. Here is the method: Compounds of the invention were incubated with 1.5 nM [3H]Lysergic acid diethylamide (LSD) for 120 min. at 37° C. […] Receptor proteins were filtered and washed, the filters were then counted to determine [3H]LSD specifically bound. Compounds were screened at 1 μM or lower, using 1% DMSO as vehicle. Biochemical assay results are presented as the percent inhibition of specific binding in Table 10.

For assay [6], the target named is human recombinant serotonin (5-Hydroxytryptamine) 5-HT7 receptor (Homo sapiens, UniProt P34969). The experiment in a line: Serotonin 5-HT7 radioligand binding ([3H]LSD). Particulars: compound at 1 μM; read-out: Inhibition of ligand binding, Serotonin 5-HT7 (percent inhibition of specific binding). The source says: Receptor proteins were filtered and washed, the filters were then counted to determine [^3H]LSD specifically bound.
Sequence of human recombinant serotonin (5-Hydroxytryptamine) 5-HT7 receptor (P34969 whole entry): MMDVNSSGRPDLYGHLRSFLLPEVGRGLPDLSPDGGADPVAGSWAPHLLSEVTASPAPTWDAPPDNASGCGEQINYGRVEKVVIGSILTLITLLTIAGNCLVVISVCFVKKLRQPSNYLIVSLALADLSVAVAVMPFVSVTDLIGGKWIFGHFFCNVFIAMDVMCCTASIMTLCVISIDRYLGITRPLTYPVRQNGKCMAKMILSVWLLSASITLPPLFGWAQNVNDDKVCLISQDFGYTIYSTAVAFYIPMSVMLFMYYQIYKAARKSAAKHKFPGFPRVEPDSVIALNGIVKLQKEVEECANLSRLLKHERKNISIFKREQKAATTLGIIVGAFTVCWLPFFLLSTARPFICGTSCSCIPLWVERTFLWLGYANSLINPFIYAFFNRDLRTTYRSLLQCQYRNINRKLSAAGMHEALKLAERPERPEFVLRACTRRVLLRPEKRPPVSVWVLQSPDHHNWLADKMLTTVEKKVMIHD

T2 sequence (P28223 whole entry): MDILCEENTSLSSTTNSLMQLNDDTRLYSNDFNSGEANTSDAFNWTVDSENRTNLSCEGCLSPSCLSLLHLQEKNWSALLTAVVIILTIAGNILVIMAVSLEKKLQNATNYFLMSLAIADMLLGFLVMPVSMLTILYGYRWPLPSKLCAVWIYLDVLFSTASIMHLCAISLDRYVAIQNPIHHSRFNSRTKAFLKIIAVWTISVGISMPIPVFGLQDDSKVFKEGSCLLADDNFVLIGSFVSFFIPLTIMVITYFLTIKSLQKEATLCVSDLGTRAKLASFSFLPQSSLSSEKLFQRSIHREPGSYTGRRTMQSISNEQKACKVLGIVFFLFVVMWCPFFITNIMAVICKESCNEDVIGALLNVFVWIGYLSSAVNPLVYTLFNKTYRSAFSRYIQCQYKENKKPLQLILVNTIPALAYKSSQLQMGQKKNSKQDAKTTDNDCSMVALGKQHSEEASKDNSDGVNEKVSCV
T1 sequence (P25021 whole entry): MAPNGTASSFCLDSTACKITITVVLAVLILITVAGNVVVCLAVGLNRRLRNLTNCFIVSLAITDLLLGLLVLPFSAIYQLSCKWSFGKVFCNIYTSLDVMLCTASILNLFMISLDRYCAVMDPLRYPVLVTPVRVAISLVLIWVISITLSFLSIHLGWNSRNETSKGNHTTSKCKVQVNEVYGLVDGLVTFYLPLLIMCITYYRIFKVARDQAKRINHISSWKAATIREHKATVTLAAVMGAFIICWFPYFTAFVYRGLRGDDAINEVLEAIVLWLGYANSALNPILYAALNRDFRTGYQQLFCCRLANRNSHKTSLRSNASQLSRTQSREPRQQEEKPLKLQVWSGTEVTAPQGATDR
Sequence of human dopamine D2L receptor (P14416 whole entry): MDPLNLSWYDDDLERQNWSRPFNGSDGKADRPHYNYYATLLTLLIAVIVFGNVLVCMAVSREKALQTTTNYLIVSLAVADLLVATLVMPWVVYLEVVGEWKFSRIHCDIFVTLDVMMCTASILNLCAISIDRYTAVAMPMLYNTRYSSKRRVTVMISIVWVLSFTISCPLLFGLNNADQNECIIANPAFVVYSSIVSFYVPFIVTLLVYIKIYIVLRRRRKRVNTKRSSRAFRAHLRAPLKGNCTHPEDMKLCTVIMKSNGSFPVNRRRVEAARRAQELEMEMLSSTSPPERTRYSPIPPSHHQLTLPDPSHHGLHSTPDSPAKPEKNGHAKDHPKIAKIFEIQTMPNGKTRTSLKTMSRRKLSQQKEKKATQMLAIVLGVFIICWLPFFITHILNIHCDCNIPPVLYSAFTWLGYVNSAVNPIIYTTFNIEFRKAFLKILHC
Sequence of histamine receptor H1 (P35367 whole entry): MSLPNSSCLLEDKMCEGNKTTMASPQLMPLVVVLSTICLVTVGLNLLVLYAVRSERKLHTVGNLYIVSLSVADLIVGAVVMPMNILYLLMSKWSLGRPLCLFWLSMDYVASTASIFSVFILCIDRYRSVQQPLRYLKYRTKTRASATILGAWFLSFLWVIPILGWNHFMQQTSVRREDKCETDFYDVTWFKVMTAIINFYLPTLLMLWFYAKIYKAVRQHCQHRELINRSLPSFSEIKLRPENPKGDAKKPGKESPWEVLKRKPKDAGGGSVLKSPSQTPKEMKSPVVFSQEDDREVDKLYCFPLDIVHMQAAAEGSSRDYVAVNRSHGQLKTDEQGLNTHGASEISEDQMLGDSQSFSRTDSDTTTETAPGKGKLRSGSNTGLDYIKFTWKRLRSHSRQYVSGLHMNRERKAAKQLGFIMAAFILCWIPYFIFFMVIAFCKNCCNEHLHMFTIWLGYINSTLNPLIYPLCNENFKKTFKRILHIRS
T4 sequence (P50406 whole entry): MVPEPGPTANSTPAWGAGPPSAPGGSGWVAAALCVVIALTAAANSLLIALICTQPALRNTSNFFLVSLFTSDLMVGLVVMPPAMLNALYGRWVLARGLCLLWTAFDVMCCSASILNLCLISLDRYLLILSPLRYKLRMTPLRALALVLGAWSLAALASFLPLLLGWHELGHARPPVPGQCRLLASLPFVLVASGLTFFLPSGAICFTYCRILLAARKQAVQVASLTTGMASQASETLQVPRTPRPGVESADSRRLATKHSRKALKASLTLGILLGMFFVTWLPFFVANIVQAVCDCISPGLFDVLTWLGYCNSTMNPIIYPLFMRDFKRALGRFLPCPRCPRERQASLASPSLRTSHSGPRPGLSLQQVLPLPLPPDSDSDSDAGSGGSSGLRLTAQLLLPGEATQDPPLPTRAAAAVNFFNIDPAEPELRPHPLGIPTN

The term inhibition denotes the change of the read-out against control, counted positive when it falls. Regarding `CN1CCc2c(c3cccc(F)c3n2CC(C)(O)c2ccncc2)C1` (stereo not shown) [Compound 185, 1-(6-fluoro-2-methyl-3,4-dihydro-1H-pyrido[4,3-b]indol-5(2H)-yl)-2-(pyridin-4-yl)propan-2-ol], the inhibition at 1 µM on histamine receptor H1 is 8%; in assay [1] it was 29%; in assay [2] it was -1%; in assay [3] it was 82%; in assay [4], 83%; in assay [5] it was 26%. In addition, the inhibition at 1 µM in assay [6] amounted to 41%.
With `C/C(=C/n1c2c(c3cc(Cl)ccc31)CN(C)CC2)c1ccccc1Cl` [Compound 237, (Z)-8-chloro-5-(2-(2-chlorophenyl)prop-1-enyl)-2-methyl-2,3,4,5-tetrahydro-1H-pyrido[4,3-b]indole], the inhibition at 1 µM at histamine receptor H1 worked out at 88%; in assay [1] it was 95%; in assay [2] it was 45%; in assay [3], 101%; in assay [4] it was 98%; in assay [5] it was 101%. Besides, in assay [6], the inhibition at 1 µM stood at 100%.
As for `C/C(=C/n1c2c(c3cc(Cl)ccc31)CN(C)CC2)c1cccc(F)c1` [Compound 233, (Z)-8-chloro-5-(2-(3-fluorophenyl)prop-1-enyl)-2-methyl-2,3,4,5-tetrahydro-1H-pyrido[4,3-b]indole], the inhibition at 1 µM on histamine receptor H1 was found to be 85%; in assay [1], 99%; in assay [2], 48%; in assay [3], 97%; in assay [4], 101%; in assay [5], 102%. Also, in assay [6], the inhibition at 1 µM is 95%.
In the case of `C/C(=C\n1c2c(c3ccc(Cl)cc31)CN(C)CC2)c1ccncc1` [Compound 219, (E)-7-chloro-2-methyl-5-(2-(pyridin-4-yl)prop-1-enyl)-2,3,4,5-tetrahydro-1H-pyrido[4,3-b]indole], on histamine receptor H1 (1 μM), the “Histamine Binding (1 μM) H1, percent inhibition of specific binding” value was 66%. Also, the inhibition at 1 µM at histamine receptor H1 was found to be 60%; in assay [1] it was 82%; in assay [2], 96%; in assay [3], 101%; in assay [4] it was 98%; in assay [5] it was 102%. Moreover, the inhibition at 1 µM in assay [6] turned out to be 94%. In addition, the “Inhibition of ligand binding, Dopamine D2L” value in assay [2] (1 µM) is recorded as 97%. The inhibition at 0.1 µM in assay [3] (read-out: Inhibition of ligand binding, Serotonin 5-HT2A (percent inhibition of specific binding), compound at 0.1 μM) was 100%; in assay [4] (compound at 0.1 μM), 94%; in assay [5] (compound at 0.1 μM), 96%.
With `COc1ccc2c(c1)c1c(n2/C=C(/C)c2ccncc2)CCN(C)C1` [Compound 239, (Z)-8-methoxy-2-methyl-5-(2-(pyridin-4-yl)prop-1-enyl)-2,3,4,5-tetrahydro-1H-pyrido[4,3-b]indole], the inhibition at 1 µM at histamine receptor H1 is 14%; in assay [1] it was 28%; in assay [2], 39%; in assay [3] it was 93%; in assay [4] it was 93%; in assay [5], 104%. Besides, the inhibition at 1 µM in assay [6] worked out at 98%.
On to `C/C(=C/n1c2c(c3cc(Cl)c(Cl)cc31)CN(C)CC2)c1ccncc1` [Compound 244, (Z)-7,8-dichloro-2-methyl-5-(2-(pyridin-4-yl)prop-1-enyl)-2,3,4,5-tetrahydro-1H-pyrido[4,3-b]indole], for which the inhibition at 1 µM on histamine receptor H1 stood at 87%; in assay [1] it was 88%; in assay [2] it was 86%; in assay [3], 103%; in assay [4], 99%; in assay [5] it was 106%. For the same compound, the inhibition at 1 µM in assay [6] was found to be 99%.
`Cc1ccc2c(c1)c1c(n2CC(C)(O)c2ccc(O)cc2)CCN(C)C1` (stereo not shown) [Compound 187, 4-(1-(2,8-dimethyl-3,4-dihydro-1H-pyrido[4,3-b]indol-5(2H)-yl)-2-hydroxypropan-2-yl)phenol]: the inhibition at 1 µM on histamine receptor H1 is 36%; in assay [1], 57%; in assay [2], 35%; in assay [3] it was 102%; in assay [4], 99%; in assay [5], 98%. Further, the inhibition at 1 µM in assay [6] was 94%.
Turning to `CN1CCc2c(c3c(Cl)c(Cl)ccc3n2CC(C)(O)c2ccncc2)C1` (stereo not shown) [Compound 190, 1-(8,9-dichloro-2-methyl-3,4-dihydro-1H-pyrido[4,3-b]indol-5(2H)-yl)-2-(pyridin-4-yl)propan-2-ol], the inhibition at 1 µM at histamine receptor H1 is -11%; in assay [1] it was 9%; in assay [2], -15%; in assay [3], 71%; in assay [4], 52%; in assay [5] it was 31%. Also, the inhibition at 1 µM in assay [6] turned out to be 47%.
For the compound `C/C(=C\n1c2c(c3cc(Cl)c(Cl)cc31)CN(C)CC2)c1ccncc1` [Compound 243, (E)-7,8-dichloro-2-methyl-5-(2-(pyridin-4-yl)prop-1-enyl)-2,3,4,5-tetrahydro-1H-pyrido[4,3-b]indole], the inhibition at 1 µM on histamine receptor H1 stood at 95%; in assay [1], 90%; in assay [2], 96%; in assay [3], 100%; in assay [4], 99%; in assay [5], 107%. For the same compound, in assay [6], the inhibition at 1 µM was found to be 97%.
As for `C/C(=C\n1c2c(c3cc(C)ccc31)CN(C)CC2)c1cccc(F)c1` [Compound 226, (E)-5-(2-(3-fluorophenyl)prop-1-enyl)-2,8-dimethyl-2,3,4,5-tetrahydro-1H-pyrido[4,3-b]indole], the inhibition at 1 µM at histamine receptor H1 came to 71%; in assay [1], 100%; in assay [2] it was 46%; in assay [3], 98%; in assay [4], 100%; in assay [5], 101%. The inhibition at 1 µM in assay [6] came to 100%.
`C/C(=C/n1c2c(c3cc(Cl)ccc31)CN(C)CC2)c1cc(F)c(F)cc1Cl` [Compound 240, (Z)-8-chloro-5-(2-(2-chloro-4,5-difluorophenyl)prop-1-enyl)-2-methyl-2,3,4,5-tetrahydro-1H-pyrido[4,3-b]indole]: the inhibition at 1 µM on histamine receptor H1 is 95%; in assay [1], 99%; in assay [2], 34%; in assay [3], 99%; in assay [4], 99%; in assay [5], 104%. In addition, the inhibition at 1 µM in assay [6] is 99%.
